Here are results for seven molecules from patent US5574178A, “4,6-Di-t-butyl-dihydrobenzofuran-5-ol and its derivatives” (Chugai Seiyaku Kabushiki Kaisha, priority 1992, dated 1996).

Format in all cases: biochemical
For one assay, the system named is Rabbit LDL. The assay can be described thus: Amount of TBARS (Cu^2+-induced oxidation of rabbit LDL). The settings on record: 5 μM Cu^2+. How it is done:
Rabbit LDL was prepared in accordance with the method of Havel et al. [Havel, R. J. et al., J. Clin. Invest., 34, (1955)]. After adding 5 μM of Cu^2+, the mixture was warmed until a thiobarbituric acid reactive substance (TBARS) was produced. The test compounds were evaluated for their anti-oxidative action with the amount of TBARS being used as an index. [formula]

The target in assay [1] is lipid peroxidation due to the autoxidation of linoleic acid. The assay is described as follows: Linoleic acid-MCLA system, Test Case 4. Conditions: linoleic acid 10 mM, MCLA 2 μM, 1-butanol, 37° C.; read-out: 50% inhibition concentration. How it is done: The test compounds were evaluated for their inhibitory effect against lipid peroxidation due to the autoxidation of linoleic acid.
A reaction solution was prepared by mixing linoleic acid and MCLA (2-methyl-6-(p-methoxyphenyl)-3,7-dihydroimidazo[1,2-a]pyrazin-3-one) in 1-butanol and stored in ice until use. An amount of this reaction solution was sampled in a chemiluminescence measuring cell and, immediately thereafter, the intensity of chemiluminescence due to the autoxidation of linoleic acid was measured at 37° C. in a thermostatic bath. A normal chemiluminescence intensity measurement was conducted about 2-4 min later when the chemiluminescence substantially peaked.

For assay [2], the system named is lactoperoxidase reaction system (singlet oxygen). The assay can be described thus: Lactoperoxidase system (singlet oxygen system). Conditions: pH 4.5, 37° C. The procedure: The test compounds were evaluated under the following conditions for their effect against a lactoperoxidase reaction system.
Lactoperoxidase 10 μg/ml
Acetate buffer solution (pH 4.5)
A reaction solution was prepared by mixing hydrogen peroxide, sodium bromide and luminol in the acetate buffer solution and stored in ice until use. After warming the reaction solution at 37° C. for about 10 min, the reaction was started by addition of the lactoperoxidase solution. A measurement was started right after the addition of lactoperoxidase and subsequent stirring; chemiluminescence intensity was measured right after the start of the reaction. In the experimental model, luminol-dependent chemiluminescence induced by singlet oxygen generated by enzymatic reaction of lactoperoxidase was detected, thus enabling the measurement of the reactivity with singlet oxygen.

Assay [3] concerns xanthine oxidase (XOD)-hypoxanthine (HX) system (superoxide). The assay can be described thus: Xanthine oxidase system (superoxide generating system). The settings on record: pH 7.4, 37° C. How it is done:
The test compounds were evaluated under the following conditions for their effect in a reaction due to a xanthine oxidase (XOD)-hypoxanthine (HX) system in aqueous solution.
Xanthine oxidase 0.1 U/ml
Hepes buffer solution (pH 7.4)
A reaction solution was prepared by mixing hypoxanthine and luminol in the Hepes buffer solution and stored in ice until use. After warming the reaction solution at 37° C. for about 10 min, the reaction was started by addition of the xanthine oxidase solution. A measurement was started right after the addition of xanthine oxidase and subsequent stirring; chemiluminescence intensity was normally measured right after the start of the reaction. In the experimental model, luminol-dependent chemiluminescence induced by superoxide generated by enzymatic reaction of xanthine oxidase was detected, thus enabling the measurement of the reactivity with superoxide.

The structures appear in SMILES notation. pIC50: −log10 of the molar value.

`CCCc1c2c(c(C(C)(C)C)c(O)c1C(C)(C)C)CC(C)(C)O2` [q, 5-Hydroxy-4,6-Di-tert-Butyl-2,2-Dimethyl-7-Propyl-2,3-Dihydrobenzofuran]: the “TBARS produced (%)” value in the assay on Rabbit LDL (at 10^-5 M of compound, 10 µM) was determined as 56.8%; in the assay on Rabbit LDL (at 10^-6 M of compound, 1 µM), 97.4%. The pIC50 in assay [1] is 5.30. Moreover, the “Chemiluminescence intensity (% of control)” value in assay [2] (at 20 μM of compound) is given as 104.0 % of control; in assay [2] (at 200 μM of compound), 73.4 % of control.

As for `CC(C)(C)c1c(O)ccc2c1CCO2` [Comparison 1, reference compound], the pIC50 in assay [1] was 4.21. Further, the “Chemiluminescence intensity (% of control)” value is reported as 23.9 % of control in assay [3] (at 20 μM of compound), 6.3 % of control in assay [3] (at 200 μM of compound), 77.6 % of control in assay [2] (at 20 μM of compound) and 6.0 % of control in assay [2] (at 200 μM of compound).

In the case of `CC(C)(C)c1cc(O)c(C(C)(C)C)c2c1OCC2` [Comparison 5, reference compound], the pIC50 in assay [1] is 4.39. Further, the “Chemiluminescence intensity (% of control)” value is listed as 21.9 % of control in assay [3] (at 20 μM of compound), 8.2 % of control in assay [3] (at 200 μM of compound), 95.3 % of control in assay [2] (at 20 μM of compound) and 4.5 % of control in assay [2] (at 200 μM of compound).

With `CC(C)(C)c1cc2c(c(C(C)(C)C)c1O)CCO2` [Compound a, 4,6-Di-tert-Butyl-5-Hydroxy-2,3-Dihydrobenzofuran], the “TBARS produced (%)” value in the assay with Rabbit LDL (at 10^-5 M of compound, 10 µM) is reported as 10.3%; in the assay with Rabbit LDL (at 10^-6 M of compound, 1 µM) it was 52.2%. In addition, the pIC50 in assay [1] was 5.15. Besides, the “Chemiluminescence intensity (% of control)” value in assay [3] (at 20 μM of compound) is 41.8 % of control; in assay [3] (at 200 μM of compound) it was 26.1 % of control; in assay [2] (at 20 μM of compound), 94.5 % of control; in assay [2] (at 200 μM of compound), 56.6 % of control.

As to `CC1Cc2c(ccc(O)c2C(C)(C)C)O1` (stereo not shown) [Comparison 2, reference compound], the pIC50 in assay [1] is 4.27. In addition, the “Chemiluminescence intensity (% of control)” value in assay [3] (at 20 μM of compound) was 32.7 % of control; in assay [3] (at 200 μM of compound), 3.2 % of control; in assay [2] (at 20 μM of compound) it was 82.1 % of control; in assay [2] (at 200 μM of compound), 15.1 % of control.

With `CCC(C)c1cc2c(c(C(C)(C)C)c1O)CCO2` (stereo not shown) [Comparison 7, reference compound], in assay [1], the pIC50 was 5.15. In addition, the “Chemiluminescence intensity (% of control)” value in assay [3] (at 20 μM of compound) was 55.8 % of control; in assay [3] (at 200 μM of compound) it was 17.5 % of control; in assay [2] (at 20 μM of compound), 86.2 % of control; in assay [2] (at 200 μM of compound), 0.8 % of control.

In the case of `CC1Cc2c(c(C(C)(C)C)cc(O)c2C(C)(C)C)O1` (stereo not shown) [Comparison 6, reference compound], the pIC50 in assay [1] is 4.72. Further, the “Chemiluminescence intensity (% of control)” value in assay [3] (at 20 μM of compound) is recorded as 31.9 % of control; in assay [3] (at 200 μM of compound), 24.0 % of control; in assay [2] (at 20 μM of compound), 105.8 % of control; in assay [2] (at 200 μM of compound), 8.1 % of control.
